Experimental data published in patent publication US20220196636A1, “GRID OF RESPONSES INDICATING DRUG SENSITIVITY” (The Johns Hopkins University, priority 2019, published 2022).

Key:
Format in all cases: cell-based, human
[1] = tested on: engineered heart slices (EHS) of hiPSC-CMs; assay: Optical mapping of action potential duration and conduction velocity, EHS; conditions: for change in APD80 compared to baseline, d201 EHS / change in conduction velocity compared to baseline, d201 EHS: paced at 1900 ms, n=4
Method: (§1) Each EHS was placed in Tyrode's solution and stained with 10 μM di-4-ANEPPS for 10 min at 37° C. The EHS was rinsed several times in a dish with warm Tyrode's solution, and then immersed in Tyrode's solution containing 10 μM blebbistatin to suppress contraction. The dish was placed on a 37° C. heated stage for the duration of the experiment. At least 5 min after adding blebbistatin, the EHS was stimulated with a point electrode and optically mapped using a CMOS camera (MiCAM Ultima-L, SciMedia). The EHS was paced by 5 ms monophasic rectangular pulses at stepwise increasing rates starting at 0.5 Hz. For some samples, E-4031, chromanol 293B, nifedipine, Bay K 8644, BaCl2, or cromakalim was added for 7 min prior to mapping. Mapping data were analyzed using custom MATLAB scripts (details provided in Supplemental Information). AP durations at 30% and 80% repolarization (APD30 and APD80) were calculated from the optical voltage signal. For drug studies, APD and conduction velocity (CV) measurements at each concentration were plotted as a percentage of APD and CV measured at baseline, with no drug present.
(§2) EHS were stained with 10 μM of the voltage-sensitive dye di-4-ANEPPS (Sigma-Aldrich Corp.) in Tyrode's solution for 10 minutes at 37° C. Afterwards, EHS were rinsed twice with Tyrode's and placed in a 35-mm dish filled with Tyrode's and 10 μM of the contraction inhibitor blebbistatin (Sigma-Aldrich Corp.). This dish was set on a stage heated to 37° C. and allowed to equilibrate for at least 5 minutes. Samples were point paced with at least 30 stimulus pulses at a range of cycle lengths, starting from 2000 ms and decreasing until the they lost capture. EHS were optically mapped during pacing using a 100×100 pixel CMOS camera (MiCAM Ultima-L, SciMedia, Costa Mesa, Calif.).
(§3) During drug studies, recordings at a range of pacing rates were taken at baseline (prior to the addition of drug) before replacing the solution in the dish with Tyrode's supplemented with blebbistatin and the lowest dose of drug studied. The sample was paced at the same range of rates and mapped 7 minutes after the addition of drug. Afterwards, the bath solution was replaced with Tyrode's with blebbistatin and the next lowest drug dose and the procedure repeated. This method was applied for all doses of each drug and, except where noted in the figures, only one drug was tested per sample. In these studies, we superfused EHS or monolayers with the following drugs: E-4031 (Tocris Bioscience), BaCl2 (Sigma-Aldrich Corp.), Chromanol 293B (Tocris Bioscience), Nifedipine (Tocris Bioscience), Bay K 8644 (Tocris Bioscience), and Cromakalim (Sigma-Aldrich Corp.).
(§4) Optical mapping data was analyzed using custom MATLAB scripts. Recordings at each pixel were de-noised using a previously described method (Little and Jones, 2010) to regulate total signal variance and convolved with a 5×5 spatial Gaussian filter. Activation times were defined as the maximum of the derivative of membrane potential (dV/dt), which was calculated as previously described (Chartrand, 2011). Histograms of local conduction velocities for each EHS were fitted to a Gaussian curve and the mean of the curve was defined as the average conduction velocity (CV). To determine longitudinal and transverse CVs, a bimodal Gaussian curve was fitted to the local CVs. Action potential durations at 30 and 80 percent repolarization (APD30 and APD80) were determined for all local traces over the recording region for each EHS and fit with Gaussian curves to determine the mean value for each EHS, as described for CV measurements. For drug studies, average APD and CV measurements for each dose were normalized by average APD and CV measurements at baseline (without the drug).

hiPSC-CM monolayers [2] = assay: Optical mapping of action potential duration and conduction velocity, monolayers
Method: as §1, §2, §3, §4

monolayers of hiPSC-CMs = assay: GRIDS analysis applied to video-based contraction data, monolayers; conditions: n=6
Method: GRIDS analysis was applied to contraction data collected from monolayers of hiPSC-CMs. Each monolayer (cultured on a plastic coverslip) was placed in a 35-mm dish filled with cell culture medium and set on the stage of a microscope (LS720, Etaluma) fitted within a cell culture incubator. Monolayers were superfused with increasing concentrations of E-4031 (FIG. 15) or isoproterenol (FIG. 16), ranging from 0 to 10 μM, and paced at decreasing cycle lengths (increasing rates), ranging from 2000 ms to 500 ms, using a field electrode. At each drug dose and paced cycle length, a 30-second video of the contracting cells was recorded at a rate of 20-30 frames per second. The cellular contraction was quantified by subtracting one reference frame of video from all other frames, summing the pixels in each frame after subtraction, plotting the summed signal over time, and detecting the peaks in the signal.

hiPSC-CM monolayers [3] = assay: GRIDS assay (pace-capture and spontaneous activity by optical mapping), monolayers
Method: as §1
(§5) To test the responsiveness of EHS to ion channel modulators, an assay referred to herein as “GRIDS” (grid of responses indicating drug sensitivity) was developed that characterizes the ability of a cardiac preparation to respond to pacing when exposed to a range of drug concentrations. This assay was used to compare EHS to age-matched monolayer cultures. APs of EHS and monolayers were evaluated at each drug concentration in the absence of pacing and when subjected to electrical stimulation at PCLs ranging from 2000 ms to 500 ms. By incorporating a range of pacing rates, GRIDS manifests the distinct sensitivities of different ion currents (Ravens and Wettwer, 1998) and their rate dependencies, and provides a “fingerprint” of drug sensitivity. Several types of responses were observed: no spontaneous activity (FIG. 6A,i), spontaneously generated APs when no pacing was applied (FIG. 6A,ii), extra APs in between pacing stimuli (FIG. 6A, iii), one AP generated for each pacing stimulus—i.e., 1:1 pace-capture (FIG. 6A, iv), and failure to maintain 1:1 pace-capture (lost beats) (FIG. 6A,v).
as §2, §3
(§6) Optical mapping data was analyzed using custom MATLAB scripts. […]

[4] = tested on: engineered heart slices (EHS) of hiPSC-CMs; assay: GRIDS assay (pace-capture and spontaneous activity by optical mapping), EHS
Method: as §1, §5, §2, §3, §6

[5] = tested on: engineered heart slices (EHS) of hiPSC-CMs; assay: Contraction measurements of EHS (change in EHS area during pacing)
Method: WT d24-78 EHS were placed in a 35-mm tissue culture mm dish filled with Tyrode's solution and maintained at 31±0.1° C. for the duration of the experiment. A section of each EHS was detached from the edge of the coverslip so that it could move freely. Each EHS was paced at 1 Hz, 1.5 Hz, and 2 Hz while the free region was imaged with a CCD camera. A custom MATLAB script was used to segment the image and calculate the change in EHS area over time, which was used as a measure of contraction.
Tyrode's solution was prepared by combining 1.8 mM CaCl2, 5 mM glucose, 5 mM HEPES, 1 mM MgCl2, 5.4 mM KCl, 135 mM NaCl, and 0.33 mM NaH2PO4 in ddH2O and adding NaOH to raise the pH to 7.4 (all chemicals from Sigma-Aldrich Corp.). EHS were placed in a 35-mm dish filled with Tyrode's solution and set on a stage heated to 31±0.1° C. (Warner Instruments, Hamden, Conn.). A section of each EHS was unhooked and allowed to move freely throughout the duration of the experiment. The EHS were allowed to equilibrate in Tyrode's for 5 minutes before the start of pacing with a point electrode. Each sample was paced for 1 minute at each of 3 cycle lengths (1000 ms, 666 ms, 500 ms), while the freely moving region was kept approximately vertical in the field of view and imaged at 4× magnification using a CCD camera (Swiftcam, Swift, Schertz, Tex.) at a rate of 14-17 fps with 320×256 pixel resolution. Samples also were imaged during pacing at 666 ms after the application of 1 μM isoproterenol (Sigma-Aldrich Corp.) for 2 minutes and after washout of the drug for 2 minutes. A pacing cycle length shorter than 1000 ms was applied in the presence of isoproterenol to overcome the increase in spontaneous rate in response to the drug. […] From this, the area of EHS was calculated in each image. The change in area from a fully relaxed state (reference frame, designated as 100% EHS area) was determined for each frame in the time series. […]

[6] = E-4031 50 nM to 10 μM, PCL 1500 ms, concentration-dependent
[7] = chromanol 293B 1 μM to 60 μM, PCL 1000 ms
[8] = chromanol 293B, all concentrations tested
[9] = BaCl2 up to 150 μM, PCL 1000 ms, concentration-dependent
[10] = additional 1 μM Bay K 8644 after 1 μM cromakalim

With `CC1(C)Oc2ccc(C#N)cc2C(N2CCCC2=O)C1O` (centres unmarked) [cromakalim] the “change in APD80 compared to baseline, d201 EHS” value ([1]; 1 μM cromakalim) was “decreased APD80” and the “change in conduction velocity compared to baseline, d201 EHS” value ([1]; 1 μM cromakalim) was “slowed conduction velocity”.

In the case of `Cc1cccc(CCN2CCC(C(=O)c3ccc(NS(C)(=O)=O)cc3)CC2)n1` [E-4031], the “change in APD80, EHS” value [1, 6] is reported as “prolonged APD80”, the “change in CV, EHS” value [1, 6] is reported as “slowed CV” and the “change in APD80, monolayers” value (hiPSC-CM monolayers [2]; [6]) is reported as “prolonged APD80”. The “change in CV, monolayers” value (hiPSC-CM monolayers [2]; [6]) was “slowed CV”, the “pace-capture from contraction video (GRIDS), monolayers” value (monolayers of hiPSC-CMs; E-4031 0 to 10 μM, PCL 2000 ms to 500 ms, more pronounced at higher doses) was “began to lose capture as the pacing rate was increased” and the “loss of capture during pacing (GRIDS), monolayers” value (hiPSC-CM monolayers [3]; E-4031 greater than 50 nM (tested 1 nM to 10 μM), increasingly shorter PCLs) was “a greater fraction of monolayers than EHS lost capture”. The “sensitivity of pace-capture (GRIDS), EHS compared with monolayers” value ([4]; E-4031 greater than 50 nM (tested 1 nM to 10 μM), rapid pacing) was “lower sensitivity of EHS to E-4031”.

With `CCS(=O)(=O)N(C)[C@H]1c2cc(C#N)ccc2OC(C)(C)[C@@H]1O` (racemic) [chromanol 293B] the “change in APD80, EHS” value [1, 7] was “no effect”, the “change in CV, EHS” value [1, 7] was “no effect” and the “change in APD80, monolayers” value (hiPSC-CM monolayers [2]; [7]) was “no effect”. For the same molecule, the “change in CV, monolayers” value (hiPSC-CM monolayers [2]; [7]) was “no effect”, the “pace-capture (GRIDS), monolayers” value (hiPSC-CM monolayers [3]; [8]) was “could be pace-captured at all PCLs from 2000 ms down to 500 ms” and the “fraction of monolayers exhibiting spontaneous activity when no pacing was applied” value (hiPSC-CM monolayers [3]; chromanol 293B, concentrations up to 60 μM) was “non-zero and constant at all concentrations except for 5 μM, when it was zero, and 60 μM, when all monolayers exhibited spontaneous activity”. For the same molecule, the “pace-capture (GRIDS), EHS” value [4, 8] was “could be pace-captured at all PCLs from 2000 ms down to 500 ms”.

`[Ba+2].[Cl-].[Cl-]` [BaCl2] was tested, and the “change in APD80, EHS” value [1, 9] was “increased APD80”, the “change in CV, EHS” value ([1]; BaCl2 up to 150 μM, PCL 1000 ms, statistically significant) was “decreased CV” and the “change in APD80, monolayers” value (hiPSC-CM monolayers [2]; [9]) was “increased APD80”. For the same molecule, the “change in CV, monolayers” value (hiPSC-CM monolayers [2]; BaCl2 up to 150 μM, PCL 1000 ms, did not reach statistical significance) was “decreased CV”, the “pace-capture (GRIDS), monolayers” value (hiPSC-CM monolayers [3]; 500 μM BaCl2) was “could be partially pace-captured only at CLs of 1000 ms and less” and the “spontaneous beating rate, monolayers” value (hiPSC-CM monolayers [3]; 500 μM BaCl2) was “up to 1 Hz”. For the same molecule, the “pace-capture (GRIDS), monolayers” value (hiPSC-CM monolayers [3]; 1 mM BaCl2) was “only a small fraction could be partially pace-captured at a CL of 500 ms”, the “spontaneous beating rate, nearly all monolayers” value (hiPSC-CM monolayers [3]; 1 mM BaCl2) was over 2 Hz and the “spontaneous rate, monolayers” value (hiPSC-CM monolayers [3]; BaCl2, no pacing, effect greater in monolayers than in EHS) was “increased in a concentration-dependent manner”. For the same molecule, the “pace-capture (GRIDS), EHS” value ([4]; 1 mM BaCl2, 500 ms PCL) was “all of the EHS tested lost capture”, the “sensitivity (GRIDS), EHS compared with monolayers” value ([4]; BaCl2) was “less sensitive to BaCl2 than monolayers” and the “spontaneous rate, EHS” value ([4]; BaCl2, no pacing) was “increased in a concentration-dependent manner”. The “pace-capture (GRIDS), EHS” value ([4]; all concentrations of BaCl2) was “could be overdrive paced at 700 ms and 1000 ms PCL for all concentrations”.

For `CC(C)NCC(O)c1ccc(O)c(O)c1` (centres unmarked) [isoproterenol], the “area change during contraction relative to baseline” value ([5]; 1 μM isoproterenol, PCL 666 ms (1.5 Hz), n=8) was 1.5±0.6 fold, the inotropic response ([5]; EHS) was “positive inotropic response” and the “area change during contraction relative to baseline after washout of the drug” value ([5]; after washout of 1 μM isoproterenol, PCL 666 ms, n=8) was 1.1±0.4 times the baseline value. The “spontaneous rate from contraction video (GRIDS), monolayers” value (monolayers of hiPSC-CMs; isoproterenol 0 to 10 μM, no pacing or 2000 ms pacing) was “increased the spontaneous rate of the monolayers in a dose-dependent manner”.

With `COC(=O)C1=C(C)NC(C)=C([N+](=O)[O-])C1c1ccccc1C(F)(F)F` (centres unmarked) [Bay K 8644] the “change in CV, EHS” value ([1]; Bay K 8644 0.3 μM to 100 μM, concentration-dependent, n=3) was “decreased CV”, the “change in APD, EHS” value ([1]; Bay K 8644 0.3 μM to 100 μM, paced at 700 ms, concentration-dependent, n=3) was “increased APD” and the “maximum capture rate, EHS” value ([1]; Bay K 8644, n=3) was “decreased the maximum capture rate”. The “change in APD80 compared to baseline, d201 EHS” value [1, 10] was “decreased APD80” and the “change in conduction velocity compared to baseline, d201 EHS” value [1, 10] was “slowed conduction velocity”.
